The source of these data is PMC7408493, “Implication of Opioid Receptors in the Antihypertensive Effect of a Novel Chicken Foot-Derived Peptide” (Biomolecules, 2020).

Series [1] concerns the target T1, porcine pepsin (Sus scrofa, UniProt P00791).
T1 construct: purchased Sigma-Aldrich (Madrid, Spain)
Briefly: In vitro simulated gastric digestion (G60). Particulars: simulated gastric fluid 35 mM NaCl pH 2, porcine pepsin enzyme/substrate 1:20 w/w, 37 °C, 60 min; UHPLC-HRMS extracted ion chromatogram, 20 ppm window, semi-quantified; triplicate aliquots. Type of series: in vitro ADME. As to the method: For the in vitro simulated peptide GI digestion, a two-stage hydrolysis process was carried out according to Martos et al.. […] was dissolved in simulated gastric fluid (35 mM NaCl at pH 2 for 15 min) and posteriorly subjected to digestion by porcine pepsin (E.C. 3.4.23.1, 3440 units/mg) at an enzyme/substrate ratio of 1: 20 w/w at 37 °C for 60 min. Gastric digestion with pepsin was stopped by adding 1 M NaHCO3 and pH was adjusted to 7.0 with NaOH 1 M (final protein concentration of 5 mg/mL). Aliquots of this gastric digest were collected (G60) and stored at −20 °C until analysis. Duodenal digestions were performed by using, as the starting material, the obtained gastric digests, with the addition of 1 M CaCl2, 0.25 M bis-Tris pH 6.5, 0.25 M bis-Tris pH 6.5, and a 0.125 M bile salts mixture containing equimolar quantities of sodium taurocholate and glycodeoxycholic acid. Posteriorly, the duodenal enzymes trypsin (EC 232-650-8, 10100 BAEE units/mg protein), α-chymotrypsin (EC 232-671-2; 55 units/mg protein), porcine pancreatic lipase (EC 232-619-9) and colipase (EC 259-490-1), prepared in 35 mM NaCl adjusted to pH 7, were added to the solution. Duodenal digestion was carried out at pH 7, 37 °C during 60 (D60). Then, enzymes were inactivated by heating at 95 °C for 10 min in a water bath, followed by cooling to room temperature. Triplicates of aliquots at each time point were collected and stored at −20 °C until analysis.
(§1) Samples obtained from in vitro peptide simulated digestion and Caco-2 monolayers were diluted 10 times with water (0.1% FA) and centrifuged (15,000 rpm, 15 min, 4 °C). Supernatants were directly analyzed by UHPLC-HRMS to avoid the loss of polar peptide fragments. Extensive clean-up or pre-concentration procedures were not necessary due to the high concentration of peptide and low matrix complexity than plasma samples.
(§2) The obtained purified solutions from plasma and peptide digests G60 and D60 and from AP and BL chambers in Caco-2 experiment were analyzed using a UHPLC 1290 Infinity II Series coupled to a QqQ 6490 Series (Agilent Technologies, Santa Clara, CA, USA) for tandem mass experiments or a qTOF 6550 Series (Agilent Technologies) for high-resolution mass spectrometry experiments. Chromatographic separation of peptide or their fragments were performed using a Kinetex 2.6 µm EVO C18 column (150 × 2.1 mm, […]) from (Phenomenex, Torrance, USA) as stationary phase and water containing 0.1% formic acid (solvent A) and acetonitrile (solvent B) as mobile phase. The separation was performed in gradient elution as follows: isocratic; 0–0.5 min, 2 % B; 0.5–1 min, 2–6% B; 1–5 min, 6–15% B; 5–6 min, 15–35% B; 6–10 min, 35–98% B; 10–12 min, 98% B isocratic; 12–12.10, 98–2% B. For all runs, 10 μL of the sample (4 °C) was injected, and the flow rate was 0.350 mL/min and the column temperature was 25 °C.
(§3) For in vitro simulated digestion experiments and Caco-2 monolayer samples, qTOF instrument was used to investigate the presence of unknown peptide fragments and previously in silico predicted peptide fragments by means of its accurate mass. Peptide and its fragments were semi-quantified using the chromatographic peak area observed in the extracted ion chromatograms using a 20 ppm mass window.

Series [2] deals with Caco-2 cell monolayers. The experiment in a line: Transepithelial transport through Caco-2 monolayer. Type of series: in vitro ADME. Particulars: 21 days, TEER > 200 Ω/cm^2, gastric digest G60 added to apical chamber, AP to BL, 1 h, 37 °C, HBSS, content in basolateral chamber in comparison to apical chamber, UHPLC-HRMS, triplicates. As to the method: Caco-2 cells were obtained from Sigma-Aldrich and were grown Dulbecco’s modified minimum essential medium (DMEM), supplemented with 20% fetal bovine serum (FBS), […] L-glutamine, 100 U/mL penicillin and 100 μg/mL streptomycin at 37 °C in and 5% CO2. Cells were seeded onto Transwell inserts permeable membrane support (0.4 µm pore, 24 mm diameter, 4.7 cm^2 grown surface from Merck Co., Bedford, MA, USA) placed in six-well plates. The seeding density was 12,000 cell/cm^2. The medium was replaced every 2–3 days and cells were growing for 21 days. On the 21st day of the procedure, the integrity of the Caco-2 monolayer was assessed by the measurement of transepithelial electrical resistance (TEER) using a Millicell ERS-2 voltammeter (EMD Millipore, Darmstadt, Germany) selecting the ones with TEER values higher than 200 Ω/cm^2.
For the transport study, Caco-2 cells, maintained in DMEM, were gently rinsed with Hank’s balanced salt solution (HBSS) and equilibrated for 20 min at 37 °C prior to the transport study. Then, it was evaluated the transepithelial transport of the peptide […] (1 mM) dissolved in HBSS and the digests obtained in the in vitro simulated digestion (G60 and D60). […] or the peptide digests G60 and D60 were added to the apical (AP) chamber and were incubated for 1 h at 37 °C. After this time, triplicates of the AP chamber content and the basolateral (BL) chamber content were taken and stored at −80 °C until ultra-high performance liquid chromatography-high resolution mass spectrometry (UHPLC-HRMS) analyses.
as §1, §2, §3
For orientation: Caco-2 monolayers are a common model of the intestinal barrier.

Series [3] deals with spontaneously hypertensive rats. Briefly: Systolic blood pressure in SHR with or without Naloxone (tail-cuff). The following applies: 50 mg/kg bw oral, Naloxone 3 mg/kg bw or saline, 6 h post-administration, n = 6. The format is in vivo, rat. As to the method:
Male, 17–20-week-old, SHR, weighing 286 ± 4 g were used in this study. All these animals were obtained from Charles River Laboratories Spain. The SHR were housed at a temperature of 23 °C with 12 h light/dark cycles and had free access to tap water and a standard diet (A04 Panlab). Before the experiments, rats were submitted to a training period of 10 days to guarantee the reliability of the measurements. To evaluate if […] presented an opioid-mediated effect, SHR received via subcutaneous 100 µL of Naloxone (3 mg/kg bw), and afterward a single oral dose (1 mL) of […] (10 mg/kg bw). Additionally, water, Captopril (50 mg/kg bw), known antihypertensive drug, and chicken foot hydrolysate Hpp11 (55 mg/kg bw), were administered as controls. Captopril and Hpp11 can inhibit ACE in vivo. […] Systolic blood pressure (SBP) was recorded in the rats by the tail-cuff method before and 2, 4, and 6 h post-administration. […]
Results from transepithelial transport studies are presented as means ± standard error means (SEM). […] The results for the experiments investigating the participation of opioid receptors in the […], Captopril and Hpp11 antihypertensive effect were expressed as the mean ± SEM of six animals per group (heterogeneity was tested by Levene’s test) and were analyzed by one-way ANOVA (Tukey’s test) using IBM SPSS Statistics 20.0 software. […]

For series [4] the following is noted: peptides derived from Manchego cheese; ref Ruiz et al.; cited from earlier work. As for the experimental part: Simulated in vitro gastrointestinal digestion model was used to investigate the releasing of the amino acid sequences previously predicted in the in silico approach. The peptide was sequentially digested under physiological conditions and the identification of amino acid sequences in samples obtained from both gastric and intestinal digestion were performed by UHPLC-HRMS (Table 2). When the results obtained by the in silico approach and in vitro approach were compared, it was observed that only two of the fourteen predicted peptide fragments from the in silico approach were identified in the i ...

In series [5] the test system is Caco-2 monolayer. The following applies: cited from earlier work. As to the method:
To verify the lack of absorption of the peptide or their resultant fragments in the GI tract an additional study using Caco-2 cells was carried out. The native peptide […] and the samples collected after the simulated gastric and duodenal digestions (G60 and D60, respectively) were incubated in Caco-2 monolayer for 1 h. The peptide and its resultant fragments were identified in the AP chamber from G60 samples, however, only 0.10–0.25% were transported to the BL chamber (Table 3). Therefore, the presence of native […] in the AP chamber after 1 h of incubation and the absence of the ...

Series [6] has as its system opioid receptors. The following applies: non-selective opioid receptor antagonist Naloxone; cited from earlier work. The text has this: However, some bioactive peptides might mediate their physiological effects through its binding to receptors present in the intestinal wall, implying that their absorption is not required. […] These opioid-like peptides are atypical opioid ligands that are released from the hydrolysis of food and present N-terminal sequences that are different fro ...

Bridge positions count the residues as written; N and C are the ends. Ends that are not written are not given here. Peptide text beside a SMILES is read from it. I, II: the chains in the order shown. * marks the point of attachment. X1 = NC(=O)CC[C@H](NC(=O)[C@@H](N)CS*)C(=O)N[C@@H](CCC(=O)O)C(=O)O

T1 sequence (P00791 60-385): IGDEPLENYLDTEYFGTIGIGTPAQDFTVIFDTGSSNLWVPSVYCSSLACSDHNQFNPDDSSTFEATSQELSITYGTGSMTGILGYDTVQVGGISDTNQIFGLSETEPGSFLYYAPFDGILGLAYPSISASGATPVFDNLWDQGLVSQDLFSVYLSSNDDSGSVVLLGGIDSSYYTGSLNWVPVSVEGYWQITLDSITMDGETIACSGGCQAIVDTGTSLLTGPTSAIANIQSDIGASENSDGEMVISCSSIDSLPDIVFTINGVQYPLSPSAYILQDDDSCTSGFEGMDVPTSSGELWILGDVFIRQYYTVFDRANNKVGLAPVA

Take `CC(C)[C@H](NC(=O)[C@H](C)N)C(=O)N[C@@H](Cc1ccccc1)C(=O)N[C@@H](CCC(N)=O)C(=O)N[C@@H](Cc1c[nH]cn1)C(=O)N[C@@H](CC(N)=O)C(=O)N[C@@H](CSSC[C@H](N)C(=O)N[C@@H](CCC(N)=O)C(=O)N[C@@H](CCC(=O)O)C(=O)O)C(=O)N[C@@H](CCC(N)=O)C(=O)N[C@@H](CCC(=O)O)C(=O)O` (H-AVFQHNC(X1)QE-OH): the “Area G60 (chromatographic peak area)” value in series [1] is reported as 93,694. The “G60 % Transport” value in series [2] is 0.15%.

For `CC(C)[C@H](NC(=O)[C@H](C)N)C(=O)N[C@@H](Cc1ccccc1)C(=O)N[C@@H](CCC(N)=O)C(=O)N[C@@H](Cc1c[nH]cn1)C(=O)N[C@@H](CC(N)=O)C(=O)N[C@@H](CSSC[C@H](NC(=O)[C@H](CC(N)=O)NC(=O)[C@H](Cc1c[nH]cn1)NC(=O)[C@H](CCC(N)=O)NC(=O)[C@H](Cc1ccccc1)NC(=O)[C@@H](NC(=O)[C@H](C)N)C(C)C)C(=O)N[C@@H](CCC(N)=O)C(=O)N[C@@H](CCC(=O)O)C(=O)O)C(=O)N[C@@H](CCC(N)=O)C(=O)N[C@@H](CCC(=O)O)C(=O)O` (I: H-AVFQHNCQE-OH / II: H-AVFQHNCQE-OH; disulfide I:7-II:7), in series [1], the “Area G60 (chromatographic peak area)” value is on record as 605,812. The “G60 % Transport” value in series [2] is given as 0.11%.

Turning to `CC(C)[C@H](NC(=O)[C@H](C)N)C(=O)N[C@@H](Cc1ccccc1)C(=O)N[C@@H](CCC(N)=O)C(=O)N[C@@H](Cc1c[nH]cn1)C(=O)N[C@@H](CC(N)=O)C(=O)N[C@@H](CSSC[C@H](NC(=O)[C@H](CC(N)=O)NC(=O)[C@H](Cc1c[nH]cn1)NC(=O)[C@@H](N)CCC(N)=O)C(=O)N[C@@H](CCC(N)=O)C(=O)N[C@@H](CCC(=O)O)C(=O)O)C(=O)N[C@@H](CCC(N)=O)C(=O)N[C@@H](CCC(=O)O)C(=O)O` (I: H-AVFQHNCQE-OH / II: H-QHNCQE-OH; disulfide I:7-II:4), the “Area G60 (chromatographic peak area)” value in series [1] is recorded as 136,056. Further, the “G60 % Transport” value in series [2] is 0.15%.

For the compound `CC(C)[C@H](NC(=O)[C@H](C)N)C(=O)N[C@@H](Cc1ccccc1)C(=O)O` [AVF] (H-Ala-Val-Phe-OH), the “Area G60 (chromatographic peak area)” value in series [1] is given as 200,712. Moreover, the “G60 % Transport” value in series [2] was found to be 0.15%.

Turning to `C[C@H](CS)C(=O)N1CCC[C@H]1C(=O)O` [Captopril], the “BP reduction in naloxone-treated and saline-treated rats” value in series [3] was “able to reduce BP in rats treated with Naloxone and in rats treated with saline”.

In the case of AVFQH [AVFQH], the “Area G60 (chromatographic peak area)” value in series [1] was 155,533. Further, in series [2], the “G60 % Transport” value is 0.17%.

Regarding AVFQHN [AVFQHN], the “Area G60 (chromatographic peak area)” value in series [1] is 685,482. The “G60 % Transport” value in series [2] is 0.10%.

Take AVFQHNC [AVFQHNC]: the “Area G60 (chromatographic peak area)” value in series [1] is reported as 220,051. Further, the “G60 % Transport” value in series [2] was found to be 0.60%.

Consider “KKYNVPQL [peptide derived from Manchego cheese]”, for which, in series [4], the “Resistance to GI digestion” value was “resistance to GI digestion”.

Regarding QHNCQE [QHNCQE], the “Area G60 (chromatographic peak area)” value in series [1] is given as 288,536.

Turning to “RADHP [antihypertensive peptide reported by Miguel et al]”, in series [5], the “Transport through Caco-2 monolayer” value was “lack of transported through Caco-2 monolayer”.

Regarding “VRYL [peptide derived from Manchego cheese]”, the “Resistance to GI digestion” value in series [4] was “resistance to GI digestion”.

Take “YGLF [α-lactorphin, milk-derived opioid-like antihypertensive peptide]”: the “BP-lowering effect after administration of Naloxone” value in series [6] is recorded as “abolished”.
